Experimental data as given in article PMC4508061, “Selectivity Profiling and Biological Activity of Novel β-Carbolines as Potent and Selective DYRK1 Kinase Inhibitors” (PLoS ONE, 2015).

Experiments:
ABL2 = ABL2 (Homo sapiens, UniProt P42684); experiment: ProQinase radiometric kinase panel; settings: mean of 2 exp.
PIM3 = PIM3 (Homo sapiens, UniProt Q86V86); experiment: ProQinase radiometric kinase panel; settings: mean of 2 exp.
SRC = SRC (Homo sapiens, UniProt P12931); experiment: ProQinase radiometric kinase panel; settings: mean of 2 exp.
CDK4/CycD3 = CDK4/CycD3 (Homo sapiens, UniProt P11802); experiment: ProQinase radiometric kinase panel; settings: mean of 2 exp.
Cell viability XTT assay = type: cell-based; settings: human, SH-SY5Y cells, read-out: Viability of treated cells relative to untreated control
SNK = SNK (Homo sapiens, UniProt Q9NYY3); experiment: ProQinase radiometric kinase panel; settings: mean of 2 exp.
CSK = CSK (Homo sapiens, UniProt P41240); experiment: ProQinase radiometric kinase panel; settings: mean of 2 exp.
TIE2 = TIE2 (Homo sapiens, UniProt Q02763); experiment: ProQinase radiometric kinase panel; settings: mean of 2 exp.
MYLK3 = MYLK3 (Homo sapiens, UniProt Q32MK0); experiment: ProQinase radiometric kinase panel; settings: mean of 2 exp.
CK2-alpha1 = CK2-alpha1 (Homo sapiens, UniProt P68400); experiment: ProQinase radiometric kinase panel; settings: mean of 2 exp.
CK2-alpha1, sequence (P68400 whole entry): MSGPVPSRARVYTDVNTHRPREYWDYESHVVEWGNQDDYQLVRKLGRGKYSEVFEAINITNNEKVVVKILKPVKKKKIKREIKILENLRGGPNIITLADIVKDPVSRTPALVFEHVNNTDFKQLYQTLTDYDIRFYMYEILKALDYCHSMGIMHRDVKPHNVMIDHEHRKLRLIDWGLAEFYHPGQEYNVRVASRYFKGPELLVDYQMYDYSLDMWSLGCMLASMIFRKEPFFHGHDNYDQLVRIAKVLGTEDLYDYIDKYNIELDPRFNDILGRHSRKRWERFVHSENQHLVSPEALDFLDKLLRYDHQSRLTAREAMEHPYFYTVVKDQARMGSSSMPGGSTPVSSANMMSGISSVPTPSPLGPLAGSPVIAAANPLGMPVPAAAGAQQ

MAPKAPK5 = MAPKAPK5 (Homo sapiens, UniProt Q8IW41); experiment: ProQinase radiometric kinase panel; settings: mean of 2 exp.
ERK7 = ERK7 (Homo sapiens, UniProt Q8TD08); experiment: ProQinase radiometric kinase panel; settings: mean of 2 exp.
MATK = MATK (Homo sapiens, UniProt P42679); experiment: ProQinase radiometric kinase panel; settings: mean of 2 exp.
TYRO3 = TYRO3 (Homo sapiens, UniProt Q06418); experiment: ProQinase radiometric kinase panel; settings: mean of 2 exp.
CAMKK2 = CAMKK2 (Homo sapiens, UniProt Q96RR4); experiment: ProQinase radiometric kinase panel; settings: mean of 2 exp.
GRK7 = GRK7 (Homo sapiens, UniProt Q8WTQ7); experiment: ProQinase radiometric kinase panel; settings: mean of 2 exp.
GRK7, sequence (Q8WTQ7 whole entry): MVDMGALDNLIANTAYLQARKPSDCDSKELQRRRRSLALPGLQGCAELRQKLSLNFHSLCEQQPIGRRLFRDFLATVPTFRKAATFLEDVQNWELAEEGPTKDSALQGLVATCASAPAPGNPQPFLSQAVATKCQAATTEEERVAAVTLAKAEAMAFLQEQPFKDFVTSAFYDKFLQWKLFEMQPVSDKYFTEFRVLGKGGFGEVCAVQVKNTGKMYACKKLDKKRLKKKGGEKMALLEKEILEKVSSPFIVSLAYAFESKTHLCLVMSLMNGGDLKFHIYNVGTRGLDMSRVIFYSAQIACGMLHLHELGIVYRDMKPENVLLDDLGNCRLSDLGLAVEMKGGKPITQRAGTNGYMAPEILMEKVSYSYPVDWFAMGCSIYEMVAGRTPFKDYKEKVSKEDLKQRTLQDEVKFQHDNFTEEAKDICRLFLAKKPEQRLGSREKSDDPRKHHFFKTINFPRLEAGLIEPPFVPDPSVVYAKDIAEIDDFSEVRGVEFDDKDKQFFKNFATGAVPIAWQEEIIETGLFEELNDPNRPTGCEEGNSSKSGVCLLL

TBK1 = TBK1 (Homo sapiens, UniProt Q9UHD2); experiment: ProQinase radiometric kinase panel; settings: mean of 2 exp.
EPHA5 = EPHA5 (Homo sapiens, UniProt P54756); experiment: ProQinase radiometric kinase panel; settings: mean of 2 exp.
CK2-alpha2 = CK2-alpha2 (Homo sapiens, UniProt P19784); experiment: ProQinase radiometric kinase panel; settings: mean of 2 exp.
FRK = FRK (Homo sapiens, UniProt P42685); experiment: ProQinase radiometric kinase panel; settings: mean of 2 exp.
FRK, sequence (P42685 whole entry): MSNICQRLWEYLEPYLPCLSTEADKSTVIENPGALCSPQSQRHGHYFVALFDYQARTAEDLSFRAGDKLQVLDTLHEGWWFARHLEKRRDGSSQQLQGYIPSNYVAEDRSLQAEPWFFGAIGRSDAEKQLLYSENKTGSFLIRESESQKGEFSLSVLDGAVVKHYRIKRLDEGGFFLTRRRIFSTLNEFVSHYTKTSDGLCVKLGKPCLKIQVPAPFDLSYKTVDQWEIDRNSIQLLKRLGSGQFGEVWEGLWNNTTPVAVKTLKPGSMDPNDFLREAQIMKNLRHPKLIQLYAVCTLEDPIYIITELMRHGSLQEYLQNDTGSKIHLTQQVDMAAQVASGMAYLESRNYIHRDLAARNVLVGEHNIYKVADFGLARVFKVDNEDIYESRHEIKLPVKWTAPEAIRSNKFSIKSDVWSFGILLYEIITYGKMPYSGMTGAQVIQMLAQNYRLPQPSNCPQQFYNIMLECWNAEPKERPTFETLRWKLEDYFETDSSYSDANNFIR

CDK7/CycH/MAT1 = CDK7/CycH/MAT1 (Homo sapiens, UniProt P50613); experiment: ProQinase radiometric kinase panel; settings: mean of 2 exp.
LYN = LYN (Homo sapiens, UniProt P07948); experiment: ProQinase radiometric kinase panel; settings: mean of 2 exp.
NEK1 = NEK1 (Homo sapiens, UniProt Q96PY6); experiment: ProQinase radiometric kinase panel; settings: mean of 2 exp.
GRK6 = GRK6 (Homo sapiens, UniProt P43250); experiment: ProQinase radiometric kinase panel; settings: mean of 2 exp.
NEK2 = NEK2 (Homo sapiens, UniProt P51955); experiment: ProQinase radiometric kinase panel; settings: mean of 2 exp.
NEK6 = NEK6 (Homo sapiens, UniProt Q9HC98); experiment: ProQinase radiometric kinase panel; settings: mean of 2 exp.
MINK1 = MINK1 (Homo sapiens, UniProt Q8N4C8); experiment: ProQinase radiometric kinase panel; settings: mean of 2 exp.
MINK1, sequence (Q8N4C8 whole entry): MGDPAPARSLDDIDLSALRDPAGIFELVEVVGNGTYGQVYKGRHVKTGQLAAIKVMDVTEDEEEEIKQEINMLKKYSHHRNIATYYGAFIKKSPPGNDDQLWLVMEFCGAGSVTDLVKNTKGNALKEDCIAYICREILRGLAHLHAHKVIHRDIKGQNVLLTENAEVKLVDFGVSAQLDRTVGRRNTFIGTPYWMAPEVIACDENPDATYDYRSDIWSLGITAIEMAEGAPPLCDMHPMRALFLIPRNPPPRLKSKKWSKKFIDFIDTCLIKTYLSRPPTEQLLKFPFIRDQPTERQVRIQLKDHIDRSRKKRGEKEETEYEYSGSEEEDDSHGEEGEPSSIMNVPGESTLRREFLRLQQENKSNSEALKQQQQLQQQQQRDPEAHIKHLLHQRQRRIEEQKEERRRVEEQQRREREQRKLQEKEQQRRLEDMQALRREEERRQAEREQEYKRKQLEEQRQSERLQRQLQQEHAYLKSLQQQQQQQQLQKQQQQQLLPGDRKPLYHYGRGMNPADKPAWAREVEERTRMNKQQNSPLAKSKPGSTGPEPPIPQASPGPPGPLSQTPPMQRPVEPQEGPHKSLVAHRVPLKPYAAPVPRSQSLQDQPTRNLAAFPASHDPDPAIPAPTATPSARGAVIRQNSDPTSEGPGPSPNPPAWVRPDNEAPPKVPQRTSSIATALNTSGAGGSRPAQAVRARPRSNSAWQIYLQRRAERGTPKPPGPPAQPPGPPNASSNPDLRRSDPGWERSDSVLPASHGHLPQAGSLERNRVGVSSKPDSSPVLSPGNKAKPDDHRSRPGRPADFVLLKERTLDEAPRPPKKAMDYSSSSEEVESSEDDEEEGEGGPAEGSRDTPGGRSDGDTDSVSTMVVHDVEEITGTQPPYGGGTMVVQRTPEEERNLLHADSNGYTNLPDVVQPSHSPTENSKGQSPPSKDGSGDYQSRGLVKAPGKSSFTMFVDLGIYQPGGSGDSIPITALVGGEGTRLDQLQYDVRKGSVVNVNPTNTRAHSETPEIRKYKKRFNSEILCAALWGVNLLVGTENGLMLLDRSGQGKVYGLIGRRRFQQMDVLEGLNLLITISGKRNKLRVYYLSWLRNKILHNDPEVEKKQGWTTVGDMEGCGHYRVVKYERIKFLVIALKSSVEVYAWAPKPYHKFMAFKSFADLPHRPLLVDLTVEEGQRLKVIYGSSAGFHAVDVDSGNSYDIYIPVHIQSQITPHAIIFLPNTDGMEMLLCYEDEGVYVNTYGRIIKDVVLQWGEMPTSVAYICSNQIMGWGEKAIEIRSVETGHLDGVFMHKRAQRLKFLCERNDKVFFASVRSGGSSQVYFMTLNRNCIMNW

FAK = FAK (Homo sapiens, UniProt Q05397); experiment: ProQinase radiometric kinase panel; settings: mean of 2 exp.
FAK, sequence (Q05397 whole entry): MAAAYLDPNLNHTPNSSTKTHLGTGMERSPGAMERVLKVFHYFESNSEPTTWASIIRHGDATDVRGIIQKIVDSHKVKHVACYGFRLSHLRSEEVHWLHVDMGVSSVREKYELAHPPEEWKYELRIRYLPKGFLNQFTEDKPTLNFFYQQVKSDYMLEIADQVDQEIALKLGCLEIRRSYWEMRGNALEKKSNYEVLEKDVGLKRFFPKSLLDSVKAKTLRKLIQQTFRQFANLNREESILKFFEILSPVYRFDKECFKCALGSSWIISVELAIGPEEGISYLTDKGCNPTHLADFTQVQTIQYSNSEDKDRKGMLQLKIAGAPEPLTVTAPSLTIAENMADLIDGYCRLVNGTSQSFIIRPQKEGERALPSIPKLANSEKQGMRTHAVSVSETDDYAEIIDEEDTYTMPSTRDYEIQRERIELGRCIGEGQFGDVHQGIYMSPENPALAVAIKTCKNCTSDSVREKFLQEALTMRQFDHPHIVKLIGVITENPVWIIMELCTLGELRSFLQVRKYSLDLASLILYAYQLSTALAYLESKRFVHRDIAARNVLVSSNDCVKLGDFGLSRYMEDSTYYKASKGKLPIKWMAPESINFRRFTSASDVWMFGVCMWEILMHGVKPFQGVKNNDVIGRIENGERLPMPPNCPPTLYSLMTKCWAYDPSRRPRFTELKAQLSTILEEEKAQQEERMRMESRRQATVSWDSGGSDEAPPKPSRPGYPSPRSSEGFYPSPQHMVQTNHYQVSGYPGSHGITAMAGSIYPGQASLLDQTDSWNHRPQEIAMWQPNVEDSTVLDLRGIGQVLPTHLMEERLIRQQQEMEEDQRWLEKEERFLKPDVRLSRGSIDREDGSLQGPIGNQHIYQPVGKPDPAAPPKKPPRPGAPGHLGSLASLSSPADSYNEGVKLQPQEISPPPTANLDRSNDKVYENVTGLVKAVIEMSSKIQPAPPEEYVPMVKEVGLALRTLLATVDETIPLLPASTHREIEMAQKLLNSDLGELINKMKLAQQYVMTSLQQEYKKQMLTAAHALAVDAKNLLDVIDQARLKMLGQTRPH

HCK = HCK (Homo sapiens, UniProt P08631); experiment: ProQinase radiometric kinase panel; settings: mean of 2 exp.
MAPKAPK3 = MAPKAPK3 (Homo sapiens, UniProt Q16644); experiment: ProQinase radiometric kinase panel; settings: mean of 2 exp.
IRAK4 = IRAK4 (Homo sapiens, UniProt Q9NWZ3); experiment: ProQinase radiometric kinase panel; settings: mean of 2 exp.
ACV-R1B = ACV-R1B (Homo sapiens, UniProt P36896); experiment: ProQinase radiometric kinase panel; settings: mean of 2 exp.
PKC-beta2 = PKC-beta2 (Homo sapiens, UniProt P05771); experiment: ProQinase radiometric kinase panel; settings: mean of 2 exp.
PHKG1 = PHKG1 (Homo sapiens, UniProt Q16816); experiment: ProQinase radiometric kinase panel; settings: mean of 2 exp.
COT = COT (Homo sapiens, UniProt P41279); experiment: ProQinase radiometric kinase panel; settings: mean of 2 exp.
COT, sequence (P41279 whole entry): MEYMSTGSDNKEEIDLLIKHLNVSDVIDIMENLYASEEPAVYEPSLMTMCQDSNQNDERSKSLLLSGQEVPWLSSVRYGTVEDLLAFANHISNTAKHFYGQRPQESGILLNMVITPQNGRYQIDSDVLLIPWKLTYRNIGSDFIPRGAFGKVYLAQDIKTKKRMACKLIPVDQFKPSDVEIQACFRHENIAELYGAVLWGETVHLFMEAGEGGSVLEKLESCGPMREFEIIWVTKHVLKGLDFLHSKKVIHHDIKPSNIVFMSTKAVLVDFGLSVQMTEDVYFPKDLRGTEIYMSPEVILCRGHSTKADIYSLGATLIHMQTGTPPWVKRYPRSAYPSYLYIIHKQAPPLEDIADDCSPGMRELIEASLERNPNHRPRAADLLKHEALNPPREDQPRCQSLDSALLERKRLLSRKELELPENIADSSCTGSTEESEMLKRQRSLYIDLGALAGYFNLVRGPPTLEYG

CK1-gamma1 = CK1-gamma1 (Homo sapiens, UniProt Q9HCP0); experiment: ProQinase radiometric kinase panel; settings: mean of 2 exp.
CDK1/CycA2 = CDK1/CycA2 (Homo sapiens, UniProt P06493); experiment: ProQinase radiometric kinase panel; settings: mean of 2 exp.
CDK1/CycA2, sequence (P06493 whole entry): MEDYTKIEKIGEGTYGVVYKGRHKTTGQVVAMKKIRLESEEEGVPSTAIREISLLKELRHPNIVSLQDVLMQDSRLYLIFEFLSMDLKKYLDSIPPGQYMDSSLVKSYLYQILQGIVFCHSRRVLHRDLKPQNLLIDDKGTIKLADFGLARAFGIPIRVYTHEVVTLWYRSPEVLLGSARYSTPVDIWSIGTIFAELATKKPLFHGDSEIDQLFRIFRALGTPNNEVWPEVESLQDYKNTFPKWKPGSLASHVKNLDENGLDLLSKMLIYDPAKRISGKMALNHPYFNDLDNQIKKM
CDK1/CycA2, sequence (P20248 whole entry partner): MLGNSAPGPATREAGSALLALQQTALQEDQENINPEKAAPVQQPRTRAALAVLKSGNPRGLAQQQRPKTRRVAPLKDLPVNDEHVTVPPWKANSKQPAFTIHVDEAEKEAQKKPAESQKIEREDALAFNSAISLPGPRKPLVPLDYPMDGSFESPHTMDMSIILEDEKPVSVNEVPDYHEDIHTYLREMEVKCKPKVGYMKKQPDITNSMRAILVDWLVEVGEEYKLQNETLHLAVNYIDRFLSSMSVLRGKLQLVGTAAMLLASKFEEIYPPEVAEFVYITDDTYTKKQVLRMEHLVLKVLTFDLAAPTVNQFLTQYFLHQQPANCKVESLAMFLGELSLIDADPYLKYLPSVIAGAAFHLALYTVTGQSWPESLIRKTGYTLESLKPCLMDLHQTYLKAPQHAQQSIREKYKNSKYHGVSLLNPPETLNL

MST2 = MST2 (Homo sapiens, UniProt Q13188); experiment: ProQinase radiometric kinase panel; settings: mean of 2 exp.
CDK9/CycT1 = CDK9/CycT1 (Homo sapiens, UniProt P50750); experiment: ProQinase radiometric kinase panel; settings: mean of 2 exp.

residual activity at 1 µM, Mean (ABL2): 96 % of control
residual activity at 1 µM, Mean (PIM3): 44 % of control
residual activity at 1 µM, Mean (SRC): 95 % of control
residual activity at 1 µM, Mean (CDK4/CycD3): 89 % of control
residual activity at 1 µM, Mean (SNK): 92 % of control
residual activity at 1 µM, Mean (CSK): 94 % of control
residual activity at 1 µM, Mean (TIE2): 84 % of control
residual activity at 1 µM, Mean (MYLK3): 94 % of control
residual activity at 1 µM, Mean (CK2-alpha1): 96 % of control
residual activity at 1 µM, Mean (MAPKAPK5): 89 % of control
residual activity at 1 µM, Mean (MATK): 102 % of control
residual activity at 1 µM, Mean (TYRO3): 93 % of control
residual activity at 1 µM, Mean (CAMKK2): 86 % of control
residual activity at 1 µM, Mean (GRK7): 103 % of control
residual activity at 1 µM, Mean (TBK1): 94 % of control
residual activity at 1 µM, Mean (EPHA5): 84 % of control
residual activity at 1 µM, Mean (CK2-alpha2): 101 % of control
residual activity at 1 µM, Mean (FRK): 94 % of control
residual activity at 1 µM, Mean (CDK7/CycH/MAT1): 100 % of control
residual activity at 1 µM, Mean (LYN): 77 % of control
residual activity at 1 µM, Mean (NEK1): 101 % of control
residual activity at 1 µM, Mean (GRK6): 98 % of control
residual activity at 1 µM, Mean (NEK2): 90 % of control
residual activity at 1 µM, Mean (NEK6): 104 % of control
residual activity at 1 µM, Mean (MINK1): 92 % of control
residual activity at 1 µM, Mean (FAK): 103 % of control
residual activity at 1 µM, Mean (HCK): 101 % of control
residual activity at 1 µM, Mean (MAPKAPK3): 94 % of control
residual activity at 1 µM, Mean (IRAK4): 92 % of control
residual activity at 1 µM, Mean (ACV-R1B): 97 % of control
residual activity at 1 µM, Mean (PKC-beta2): 108 % of control
residual activity at 1 µM, Mean (PHKG1): 91 % of control
residual activity at 1 µM, Mean (COT): 88 % of control
residual activity at 1 µM, Mean (CK1-gamma1): 92 % of control
residual activity at 1 µM, Mean (CDK1/CycA2): 79 % of control
residual activity at 1 µM, Mean (MST2): 101 % of control
residual activity at 1 µM, Mean (CDK9/CycT1): 85 % of control
SMILES: COc1ccc2c3ccnc(Cl)c3n(CC#N)c2c1 [AnnH75]
viability at 3 days, 1 µM (Cell viability XTT assay; 1 μM): 89%
viability at 3 days, 3 µM (Cell viability XTT assay; 3 μM): 73%
residual activity at 1 µM, Mean (ERK7): 59 % of control
